{
  "source": "patent US12234288B2",
  "about": "“Immunogenic arginase 2 polypeptides” (IO Biotech ApS, priority 2018, dated 2025)",
  "molecules": {"B1": {"name": "IFNy: cytokine from Trichem, used at 100 U/ml (protein, UniProt P01579 24-161, looked up)", "Interferon gamma": "QDPYVKEAENLKKYFNAGHSDVADNGTLFLGILKNWKEESDRKIMQSQIVSFYFKLFKNFKDDQSIQKSVETIKEDMNVKFFNSNKKKRDDFEKLTNYSVTDLNVQRKAIHELIQVMAELSPAAKTGKRKRSQMLFRG"}, "B2": {"name": "IL-4: cytokine from Trichem, used at 400 U/ml (protein, UniProt P05112 25-153, looked up)", "Interleukin-4": "HKCDITLQEIIKTLNSLTEQKTLCTELTVTDIFAASKNTTEKETFCRAATVLRQFYSHHEKDTRCLGATAQQFHRHKQLIRFLKRLDRNLWGLAGLNSCPVKEANQSTLENFLERLKTIMREKYSKCSS"}},
  "key": {"C57BL/6 mice": {"test_system": "C57BL/6 mice", "assay": "Peptide vaccination of mice followed by murine IFNy ELISPOT of spleen cells", "type": "in vivo, mouse", "details": "for mIFNy ELISPOT response to the peptide in mice vaccinated with mArg2 P5: FIG. 13; for mIFNy ELISPOT response after vaccination: three C57 mice per peptide vaccinated s.c., 7 days, FIG. 12 / FIG. 20A", "excerpt": "3 mice in each group are vaccinated s.c. with one of the six peptides. 7 days after, the mice are terminated, spleens are homogenised and PBMC are used for mIFNy ELISPOT.\nThese peptides are used for a vaccination screen (see experimental schematic in FIG. 11), where three C57 mice are vaccinated subcutaneously with one of the 6 peptides. One week later, the mice are sacrificed and the spleens homogenized to obtain PBMC. These are used to set up IFNy ELISPOT to screen for responses against both the peptide used for vaccination and the other predicted epitope peptides with overlapping sequences.\n(§1) Dissolved peptides were subsequently emulsified with Montanide™ adjuvant (50ul/mouse) (Seppic Inc.) for an optimal dose of 100 ug total peptide given in a total volume of 100 ul. The emulsified peptide vaccination was injected subcutaneously at the base or the tail or the flank of 12-16 week old C57BL/6 mice with a 27G needle. Control mice were given water and Montanide™ emulsification in a total volume of 100 ul. For therapeutic vaccine studies on tumor inoculated mice, vaccinations were given at day 0 and 7 after tumor inoculation at the flank of the tail and the left flank, respectively. For epitope screening- and validation experiments, a single dose of vaccine was given to mice at the right flank. One week later, mice were sacrificed, and spleens were recovered. Spleens were smashed through a […] filter and red blood cells were lysed using Red Blood Cell Lysis Buffer (Qiagen). Cells were washed 4 times and counted before setup for murine IFNy ELISPOT assay with 8*10^6 cells pr. well."}, "[1]": {"test_system": "PBMCs from healthy donors and cancer patients", "assay": "IFNγ ELISPOT of PBMCs pre-stimulated one week in vitro with peptide and low-dose IL-2", "type": "cell-based, human", "details": "for IFNy ELISPOT response: validation of hotspot region peptides, PBMCs from two healthy donors, FIG. 4", "experimental": "For in vitro ELISPOT, PBMCs from cancer patients and healthy donors were pulsed with 20 μM of […] (or with no peptide as a control) and 120 U/ml IL-2 in 24-well plates for 7 days before being used in an ELISPOT assay. The cells were placed in 96-well nitrocellulose ELISPOT plates (MultiScreen MAIP N45; Millipore) pre-coated with IFNγ capture antibody (Mabtech). Arginase peptides added to a final concentration of 5 μM and plates incubated at 37° C. for 14-16 hours. After the incubation the cells were washed off and secondary biotinylated Ab (Mabtech, cat. 3420-{6-1000) was added for 2 hours at room temperature. Unbound secondary antibody was washed off and streptavidin conjugated alkaline phosphatase (AP) (Mabtech, cat. 3310-10) was added for 1 hour at room temperature. Unbound conjugated enzyme was washed off and the assay was developed by adding BCIP/NBT substrate (Mabtech, cat. 3650-10). Developed ELISPOT plates were analyzed on CTL ImmunoSpot S6 Ultimate-V analyzer using Immunospot software v5.1. Responses were reported as the difference between average numbers of spots in wells stimulated with arginase2 and wells without added peptide.\nTo test whether these peptides could be used to identify Arginase2 responses, PBMCs from 12 healthy donors and one cancer patients were screened for responses in IFNγ ELISPOT. PBMCs were stimulated with Arginase2 peptides and low dose IL-2 for 1 week prior to ELISPOT.\nThe entire arginase2 protein sequence was divided into overlapping 20-amino-acid-long peptides (with a final peptide of 24 amino acids), generating a library of 34 peptides covering the whole sequence (SEQ ID NOs 1-34)). Each peptide in the library overlapped with the first 10 amino acids of the following peptide. Using this arginase2 peptide library and the IFNγ ELISPOT assay, we next screened PBMCs from 6 healthy donors for spontaneous responses. The PBMCs were stimulated for one week with a pool of 3-4 adjacent 20-mer arginase2 library peptides and low-dose IL-2 (120 U/mL). They were then set up for an IFNγ ELISPOT assay to screen for responses against each 20-mer peptide separately.\nPBMCs from two healthy donors were stimulated for one week with a single peptide and low-dose IL-2 (120 U/mL) before IFNy ELISPOTassay to validate the responses observed in the library screen.\nPBMCs from […] were stimulated for one week with a single peptide and low-dose IL-2 (120 U/mL) before IFNy ELISPOTassay to validate the responses observed in the library screen. ARG2_1, ARG2_5, ARG2_13, ARG2_18 and ARG2_22 were tested in this validation.\nARG2_1 was used to screen for responses in 8 melanoma patients (AA07-AA31), 4 prostate cancer patients (UR07-27) and 13 healthy donors. PBMCs from each were stimulated for one week with a single peptide and low-dose IL-2 (120 U/mL) before IFNy ELISPOT assay.\nPBMCs from healthy donors or cancer patients were stimulated with 10 μM of ARG2-derived peptides in vitro to enhance assay sensitivity. On day 2, IL-2 was added to a total of 120 U/ml IL-2 (Novartis). After 7 days, 4-6×10^5 PBMCs were placed at the bottom of an ELISPOT plate pre-coated with IFNy capture antibody (Mabtech). PBMCs from each donor or patient were set up in triplicates or quadruplicates for peptide (5 μM ARG2-derived peptide) and control stimulations. Cells were incubated in ELISPOT plates in the presence of an antigen for 14-16 hrs after which they were washed off and secondary biotinylated antibody (Mabtech) was added. After two hour incubation the secondary antibody was washed off before addition of streptavidin conjugated alkaline phosphatase (Mabtech) for 1 hr. Next, unbound enzyme was washed off and the assay was developed by adding BCIP/NBT subtrate (Mabtech). Developed ELISPOT plates were analyzed on CTL Immunospot S6 Ultimate-V analyzer with ImmunoSpot software, version 5.1. […]"}, "THP-1 cells [2]": {"test_system": "THP-1 cells", "assay": "ARG1/ARG2 expression by RT-qPCR in THP-1 cells", "type": "cell-based, human", "details": "48 hr stimulation, FIG. 17C/17H", "experimental": "(§2) Cytokine stimulation with IL-4 (400 U/ml), IL-13 (50 ng/ml), IFNy (100 U/ml) or cytokine cocktail (400 U/ml IL-4, 1000 U/ml GM-CSF and 1000 U/ml TNFa) was done by seeding of 0.5-0.75×10^6 cell/mL medium supplemented with the respective cytokines and 48 hrs of incubation before cells were harvested for various experiments. All cytokines are from Trichem.\n(§3) Total RNA was reverse transcribed using the High Capacity cDNA Reverse Transcription Kit (Applied Biosystems). For each reaction, 1000 ng RNA was reverse transcribed. For RT-qPCR, the cDNA was diluted 1:5 and subjected to RT-qPCR analysis using the TaqMan Gene Expression Assay on the Roche Lightcycler 480 Instrument. RT-qPCRs were run in quadruplicates and data was analyzed using the ddCT-method with normalization to expression level of the house keeping gene RPLPO and control sample. For low concentration samples that were not amplified, Ct was set to 40. No-reverse transcriptase controls (cDNA reactions setup without reverse transcriptase) served as controls of specific amplification. A list of primers used in this study is found below.\nA set of three siRNA duplexes targeting ARG2 was obtained from Ambion (ARG2 Silencer Select Validated siRNA, ID s1571, s1572, s1573). siRNAs were suspended in nuclease free water to 0.1 nmol stock solutions and stored at −80° C. For ARG2 silencing experiments, THP-1 cells were prepared for electroporation as described above and 10 μl of a working solution of 0.02 nmol siRNA solution was added of each of the three siRNA before transfection as previously described. Immediately after transfection, cells were transferred to pre-warmed medium and incubated for 1 hr. Transfected cells were then split in two and to half of the cells cytokine cocktail (400 U/ml IL-4, 1000 U/ml GM-CSF and 1000 U/ml TNFa) was added. Cells were incubated in medium or medium containing cytokine cocktail for 48 hrs before they were set up in intracellular cytokine staining assay. Cells were pelleted for RNA after 48 hrs for accession of knock down efficiency by RT-qPCR."}, "[3]": {"test_system": "Lewis Lung (LL2) tumor cells", "assay": "Therapeutic vaccination study in Lewis Lung (LL2) tumor inoculated mice", "type": "in vivo", "details": "LL2 tumors in C57BL/6 mice, vaccinations day 0 and day 7, compared to control, FIG. 20E-G", "experimental": "LL2 cells (5*10^5) were resuspended in 100 ul of serum free medium and were injected subcutaneously in the right flank of female C57BL/6 mice. Tumor volumes were measured by digital caliper and the endpoint of tumor study was a tumor reaching the threshold size of 800 mm^3 or due to the formation of ulcers on the tumor.\nas §1, with “well. […]” for “well.”"}, "THP-1 cells [4]": {"test_system": "THP-1 cells", "assay": "Flow cytometric analysis of HLA-DR expression in THP-1 cells", "type": "cell-based, human", "details": "48 hrs stimulation, data not shown", "experimental": "HLA-DR expression analysis was performed on cells stimulated for 48 hrs with mock (no cytokines), IFNy (100U/ml) or cytokine cocktail (400U/m1 IL-4, 1000 U/ml GM-CSF and 1000 U/ml TNFa). Briefly, cells were washed and stained with 7-AAD (cat: 51-68981E, BD Bioscience) and FITC-conjugated mouse anti-human HLA-DR, DP, DQ (cat: 5555581, BD Bioscience) or FITC-conjugated mouse IgG1 K isotype ctrl (FC) (cat: 400109, BD Bioscience) for 30 minutes at 4° C. Excess antibody was washed off before cells were analyzed on FACSCanto™ II instrument. HLA-DR expression levels is given as the difference in MFI between MHC Class II stained live cells and isotype control stained live cells."}, "MONO-MAC-1 cells": {"test_system": "MONO-MAC-1 cells", "assay": "ARG2 expression by RT-qPCR in MONO-MAC-1 cells", "type": "cell-based, human", "details": "48 hrs incubation, FIG. 18A/B", "experimental": "as §2, §3"}},
  "data": [
    {"molecule": "LSPPNIVYI (listed as Mus musculus) [mArg2 P5, polypeptide derived from murine Arginase2, aa188-196]", "values": [
      {"measurement": "mIFNy ELISPOT response to the peptide in mice vaccinated with mArg2 P5", "setting": "C57BL/6 mice; listed as mArg2_188-196", "result": "strong mIFNy responses"},
      {"measurement": "mIFNy ELISPOT response after vaccination", "setting": "C57BL/6 mice", "result": "strongest and most prominent responses"}
    ]},
    {"molecule": "NYDIQYFSMRDIDRLGIQKV (listed as Homo sapiens) [ARG2_21, polypeptide derived from human Arginase2, aa211-230]", "values": [
      {"measurement": "IFNy ELISPOT response", "setting": "[1]", "result": "stronger response"}
    ]},
    {"molecule": "PNIVYIGL (listed as Mus musculus) [mArg2 P3, polypeptide derived from murine Arginase2, aa191-198]", "values": [
      {"measurement": "mIFNy ELISPOT response to the peptide in mice vaccinated with mArg2 P5", "setting": "C57BL/6 mice", "result": "no response or only weak responses"}
    ]},
    {"molecule": "SASIVYIGLRDVDPPEHFIL (listed as Homo sapiens) [ARG2-E18, polypeptide derived from human Arginase2, aa190-209]", "values": [
      {"measurement": "IFNγ ELISPOT response", "setting": "[1]; hotspot peptide screen, PBMCs from 12 healthy donors and one cancer patient, FIG. 2", "result": "highest and most consistent response"}
    ]},
    {"molecule": "IL-13: cytokine from Trichem, used at 50 ng/ml [reference compound]", "values": [
      {"measurement": "induction of ARG2 expression", "setting": "THP-1 cells [2]", "result": "did not have much effect"}
    ]},
    {"molecule": "FSWIKPCISSASIVYIGLRD (listed as Homo sapiens) [ARG2_18, polypeptide derived from human Arginase2, aa181-200]", "values": [
      {"measurement": "IFNy ELISPOT response", "setting": "[1]", "result": "strongest and most consistent responses"}
    ]},
    {"molecule": "WIKPCLSPPNIVYIGL (listed as Mus musculus) [mArg2 P4, polypeptide derived from murine Arginase2, aa182-197]", "values": [
      {"measurement": "mIFNy ELISPOT response to the peptide in mice vaccinated with mArg2 P5", "setting": "C57BL/6 mice; listed as mArg2_182-197", "result": "strong mIFNy responses"},
      {"measurement": "mIFNy ELISPOT response after vaccination", "setting": "C57BL/6 mice", "result": "Strong immune responses"},
      {"measurement": "tumor growth", "setting": "[3]", "result": "decreased tumor growth"}
    ]},
    {"molecule": "B1", "values": [
      {"measurement": "HLA-DR expression", "setting": "THP-1 cells [4]", "result": "increase HLA-DR expression"},
      {"measurement": "ARG2 expression", "setting": "MONO-MAC-1 cells", "result": "did not upregulate ARG2 expression"},
      {"measurement": "induction of ARG2 expression", "setting": "THP-1 cells [2]", "result": "not ARG2 expression"}
    ]},
    {"molecule": "B2", "values": [
      {"measurement": "induction of ARG2 expression", "setting": "THP-1 cells [2]", "result": "did not have much effect"}
    ]}
  ]
}
